The values that follow are results of earlier work, collected in US10463642B2, “Methods of treating heart failure diseases using prodrugs of methyl hydrogen fumarate” (priority 2016, dated 2019).

Counter-ions that a name gives are not always drawn. Like-named read-outs stand apart in the source and are kept apart here.

Data set [1] relates to central nervous system (CNS) inflammation. Particulars: murine EAE.
The test system is the same in data set [2]. Particulars: rat EAE.
For data set [3] the following is noted: healthy subjects, steady state.

In the case of `COC(=O)/C=C/C(=O)OC` [DMF, Dimethyl fumarate], the “CNS inflammation in EAE” value in data set [1] and in data set [2] was “inhibit” throughout. Regarding `CCN(CC)C(=O)COC(=O)/C=C/C(=O)OC` [XP23829, (N,N-diethylcarbamoyl)methyl methyl (2E)but-2-ene-1,4-dioate], in data set [3], the “dose comparable to 240 mg DMF (Tecfidera) by comparing plasma levels of MHF” value is recorded as 400 mg.
